Where two headings read alike, the source gives them in different places. No end group written: not given here.
Key:
[1] = target: T1, PD-1/PD-L1 interaction on mouse cancer cell line 4 T1 (Mus musculus, UniProt Q9EP73); experiment: Blockade of the PD-1/PD-L1 interaction on 4T1 cells; type: cell-based; settings: for Block Efficiency: blocking profile (Fig. 2h, j)
T1 construct: endogenous in cells; host or cells: 4T1

[2] = target: T2, recombinant human PD-L1 ECD protein (Homo sapiens, UniProt Q9NZQ7); experiment: SPR binding to human PD-L1; settings: for kon: read-out: Ka
T2 construct: the recombinant human PD-L1 ECD protein were evaluated using SPR; purchased G&P Biosciences FCL0784B
Description: Binding affinities of the PD-L1 specific peptides for human PD-L1 protein were determined by SPR (BI4500, Biosensing Instrument). PD-L1 protein was diluted to 10 μg/mL with sodium acetate buffer (pH 5.0, GE Healthcare, PA) and covalently coated onto a CM5 sensor chip (CM Dextran Sensor Chip, Biosensing Instrument) using the standard Amine Coupling Kit (GE Healthcare, PA). Approximately 6500 RU of PD-L1 protein were immobilized onto the chip. A second channel was used as a reference. HBS-EP+ buffer (GE Healthcare) was employed at a flow rate of 60 μL/min. A series of concentrations of each peptide (15, 30, 60, 125, 250, 500, 1000, 5000 and 10,000 nM) were prepared in HBS-EP+ running buffer to obtain the equilibrium dissociation constant (KD) values of the peptides. The CM5 sensor chip was regenerated with 10 mM NaOH for 20 s. The results were analyzed using the software of Bi data analysis software.
Binding affinities of the discovered peptides against the recombinant human PD-L1 ECD protein were evaluated using SPR. The PD-L1 protein was immobilized on a CM5 golden chip by the direct amine coupling method. […] Even though the binding affinity of peptides are generally lower than that of antibodies, the very high affinity of antibodies may result in on-target, off-tumor toxicity in healthy tissues that express low levels of PD-L1. In a recent study, scientists constructed several chimeric antigen receptor (CAR) T cells with different affinities to ICAM-1. […] CAR-T cells with nanomolar affinity lyse healthy cells that express a low level of ICAM-1. By contrast, CAR-T cells with micromolar affinity only attack tumor cells with high levels of ICAM-1 but not healthy cells with low levels of ICAM-1, leading to less toxicity.

[3] = target: T3, mouse PD-1/PD-L1 interaction (mPD-L1 protein) (Mus musculus, UniProt Q9EP73); experiment: Blockade of the mouse PD-1/PD-L1 interaction, mouse PD-L1 protein; type: biochemical; settings: for Block Efficiency: mPD-L1 protein, blocking profile (Fig. 2h, i)
T3 construct: purchased G&P Biosciences FCL3502B (PD-L1)
Description: (§1) Ninety-six-well plates were coated with 100 ng of PD-L1 protein (G&P Biosciences, human PD-L1 ECD, cat# FCL0784B. mouse PD-L1, cat# FCL3502B) and later blocked with 2% BSA for 2 h at room temperature. Various concentrations of peptides were loaded into the wells and incubated for 1 h at room temperature. […] Streptavidin-HRP (R&D systems) and chromogenic substrate were added into the wells. OD450 was then recorded and referenced to OD540.
By contrast, the blocking efficiency of the anti-mouse PD-L1 antibody was 92%.

[4] = target: T4, PD-1/PD-L1 interaction on DU-145 cells (Homo sapiens, UniProt Q9NZQ7); experiment: Blockade of the PD-1/PD-L1 interaction, plate coated with DU-145 cells; type: cell-based; settings: for Block Efficiency: DU145 cancer cells, blocking profile (Fig. 2d, f)
T4 construct: when the plate was coated with DU-145 cells; endogenous in cells; host or cells: DU-145
Description: as §1
(§2) We next examined the blocking efficiency of the anti-PD-L1 peptides at 10 μM (Fig. 2c). […] We also determined IC50 of each peptide using recombinant human PD-L1 protein and DU-145 cancer cells.

[5] = target: human PD-L1/CD80 interaction (Homo sapiens, UniProt Q9NZQ7); experiment: Blockade of the CD80/PD-L1 interaction; type: biochemical; settings: for blocking efficiency, CD80/PD-L1: 10 μM
Excerpt: The CD80/PD-L1 interaction specifically restrains T cell activation, and blockade of the interaction could enhance the anti-tumor activity of the T cells. […] We, therefore, investigated whether the anti-PD-L1 peptides block the CD80/PD-L1 interaction.
Supplementary file 40425_2019_705_MOESM1_ESM.png: Additional file 1: Figure S1. Blockade of the PD-L1/CD80 interaction by anti-PD-L1 peptides and antibody. […] IC50 and blocking efficiency of CLP002 (b) and CLP003 (c) against the human PD-L1/CD80 interaction. Results are represented as the mean ± SD (n = 3).

[6] = target: T5, human PD-1/PD-L1 interaction (hPD-L1 protein) (Homo sapiens, UniProt Q9NZQ7); experiment: Blockade of the human PD-1/PD-L1 interaction, plate coated with human PD-L1 protein; type: biochemical; settings: for Block Efficiency: hPD-L1 protein, blocking profile (Fig. 2d, e)
T5 construct: G&P Biosciences, human PD-L1 ECD, cat# FCL0784B; purchased G&P Biosciences FCL0784B (PD-L1)
Description: as §1, §2

T3 sequence (Q9EP73 19-239 limits assumed): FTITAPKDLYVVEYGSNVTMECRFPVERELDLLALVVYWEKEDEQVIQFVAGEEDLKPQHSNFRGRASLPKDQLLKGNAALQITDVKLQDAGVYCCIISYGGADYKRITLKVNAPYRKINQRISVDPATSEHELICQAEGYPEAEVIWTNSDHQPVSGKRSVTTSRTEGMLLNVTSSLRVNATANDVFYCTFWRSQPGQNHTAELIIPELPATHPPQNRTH
T1 sequence (Q9EP73 19-290): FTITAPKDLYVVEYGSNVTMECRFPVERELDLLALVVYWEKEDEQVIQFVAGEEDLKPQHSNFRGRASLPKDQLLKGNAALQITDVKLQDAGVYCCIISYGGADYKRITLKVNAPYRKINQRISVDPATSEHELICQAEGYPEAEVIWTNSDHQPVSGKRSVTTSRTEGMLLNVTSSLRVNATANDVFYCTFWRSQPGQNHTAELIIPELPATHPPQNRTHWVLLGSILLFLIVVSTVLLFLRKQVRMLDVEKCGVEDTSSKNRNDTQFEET
T4 sequence (Q9NZQ7 19-290): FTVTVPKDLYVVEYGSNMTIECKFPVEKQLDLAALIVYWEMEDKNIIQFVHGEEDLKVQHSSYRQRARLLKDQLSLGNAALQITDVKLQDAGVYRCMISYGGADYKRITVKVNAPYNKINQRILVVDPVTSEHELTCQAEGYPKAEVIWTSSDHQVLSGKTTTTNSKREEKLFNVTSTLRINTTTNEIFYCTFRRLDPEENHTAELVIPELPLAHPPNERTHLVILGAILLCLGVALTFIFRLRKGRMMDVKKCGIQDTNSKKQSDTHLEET
T2 sequence (Q9NZQ7 19-238 limits assumed): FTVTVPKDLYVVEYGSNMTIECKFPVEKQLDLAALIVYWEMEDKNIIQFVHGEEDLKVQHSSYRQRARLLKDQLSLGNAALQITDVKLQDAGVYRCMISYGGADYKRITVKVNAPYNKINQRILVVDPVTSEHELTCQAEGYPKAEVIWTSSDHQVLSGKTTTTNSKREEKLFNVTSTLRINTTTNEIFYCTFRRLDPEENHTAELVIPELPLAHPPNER
human PD-L1/CD80 interaction, sequence (Q9NZQ7 19-238 limits assumed): as above
T5 sequence (Q9NZQ7 19-238 limits assumed): as above

DYHDPSLPTLRK [CLP004]
IC50 ([1]; 4T1 cancer cells): 730 nM
Block Efficiency ([1]; 4T1 cancer cells): 34%
kon [2]: 5140 ± 390 M⁻¹ s⁻¹
Block Efficiency [3]: 48%
IC50 ([4]; DU145 cancer cells coated on the plate): 200 nM
Block Efficiency [4]: 60%
blocking efficiency, CD80/PD-L1 [5]: ~27%
Block Efficiency [6]: 52%

HYPFRPHANQAS [CLP001]
IC50 ([1]; 4T1 cancer cells): 910 nM
Block Efficiency ([1]; 4T1 cancer cells): 35%
kon [2]: 5190 ± 212 M⁻¹ s⁻¹
Block Efficiency [3]: 34%
Block Efficiency [4]: 0%
blocking efficiency, CD80/PD-L1 [5]: approximately 17%
Block Efficiency [6]: 0%

WHFSYNWRWLPP [CLP003]
kon [2]: 22600 M⁻¹ s⁻¹

WHRSYYTWNLNT [CLP002]
IC50 [1]: 2440 nM
Block Efficiency ([1]; 4T1 cancer cells): 61%
Kd ([2]; SPR, human PD-L1 immobilized on CM5 chip (~6500 RU), HBS-EP+, 60 μL/min, peptide 15-10,000 nM, mean ± SD (n = 3)): 366 nM
kon [2]: 4520 ± 666 M⁻¹ s⁻¹
IC50 [3]: 1910 nM
blocking efficiency ([3]; 10 μM, mouse PD-L1 protein (Fig. 2g)): 71%
Block Efficiency [3]: 68%
IC50 [4]: 1430 nM
Block Efficiency [4]: 80%
IC50 [5]: 2450 nM
blocking efficiency, CD80/PD-L1 [5]: ~48%
IC50 [6]: 2170 nM
Block Efficiency [6]: 85%

Source: PMC6805442, “Discovery of low-molecular weight anti-PD-L1 peptides for cancer immunotherapy” (Journal for Immunotherapy of Cancer, 2019)
